Laboratory results from paper PMC6942214 (Bioorganic & medicinal chemistry letters, 2019).

How the values were obtained:
[1] = Water solubility by an HPLC method; assay type: physicochemical; conditions: ratio of water solubilities
[2] = tested on: EU-1 ALL; assay: WST cytotoxicity assay in EU-1 leukemia cells; assay type: cell-based; conditions: read-out: IC50 (μM) EU-1 ALL
[3] = tested on: normal cells; conditions: at therapeutic concentration, preliminary results; cited from earlier work
[4] = target: T1, MDM2 (Homo sapiens, UniProt Q00987); conditions: EU-1 ALL cells; cited from earlier work
T1 sequence (Q00987 whole entry): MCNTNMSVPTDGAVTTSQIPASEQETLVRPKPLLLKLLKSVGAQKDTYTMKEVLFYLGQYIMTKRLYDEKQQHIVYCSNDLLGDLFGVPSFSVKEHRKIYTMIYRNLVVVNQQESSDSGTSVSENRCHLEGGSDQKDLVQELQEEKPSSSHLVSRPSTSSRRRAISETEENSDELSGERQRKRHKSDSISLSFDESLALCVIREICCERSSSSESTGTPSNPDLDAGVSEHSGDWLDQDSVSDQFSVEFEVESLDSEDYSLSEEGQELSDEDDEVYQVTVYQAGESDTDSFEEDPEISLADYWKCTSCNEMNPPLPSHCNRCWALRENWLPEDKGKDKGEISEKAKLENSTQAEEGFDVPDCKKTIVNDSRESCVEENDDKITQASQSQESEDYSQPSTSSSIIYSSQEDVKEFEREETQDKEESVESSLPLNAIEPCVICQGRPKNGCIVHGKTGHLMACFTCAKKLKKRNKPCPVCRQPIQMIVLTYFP

[5] = tested on: p53; conditions: EU-1 ALL cells, dose- and time-dependent; cited from earlier work
[6] = tested on: cell lysate of EU-1 leukemia cells; assay: Prodrug activation in non-denatured EU-1 cell lysate; assay type: in vitro ADME
[7] = target: T1, MDM2; assay: Western blot of MDM2 in EU-1 cells; assay type: cell-based
[8] = tested on: p53; assay: Western blot of p53 in EU-1 cells; assay type: cell-based

SMILES: Cl.N[C@@H](Cc1ccccc1)C(=O)OCCOc1cccc2c1C(=O)c1c(OCCOC(=O)[C@@H](N)Cc3ccccc3)cc(NC(=O)CCl)cc1C2=O [Compound 9f]
- fold greater solubility than parent drug BW-AQ-238 [1]: over 11000 fold

SMILES: O=C(CCl)Nc1cc(O)c2c(c1)C(=O)c1cccc(O)c1C2=O [BW-AQ-101]
- IC50 [2]: 0.83 µM
- toxicity to normal cells [3]: minimal or no toxicity
- effect on MDM2 [4]: inhibited MDM2
- effect on p53 [5]: induced activation of p53

SMILES: CC(C)[C@H](N)C(=O)OCCOc1cccc2c1C(=O)c1c(OCCOC(=O)[C@@H](N)C(C)C)cc(NC(=O)CCl)cc1C2=O.Cl [Compound 9c]
- time within which the ester bond was cleaved to give parent drug [6]: ≤ 15 min

SMILES: O=C(CCl)Nc1cc(OCCO)c2c(c1)C(=O)c1cccc(OCCO)c1C2=O [BW-AQ-238]
- cytoplasmic MDM2 level (Western blot) ([7]; 0.8 μM, 15-h time point): significantly down-regulated
- MDM2 level, time course (Western blot) ([7]; 1 μM): Down-regulation of MDM2 could be detected after 4-h treatment
- p53 level (Western blot) ([8]; 0.8 μM, 15-h time point): increased
- p53 level, time course (Western blot) ([8]; 1 μM): elevated after 4 hours of treatment
